Experimental findings from patent US20070128217A1 (priority 2003, published 2007) are described below.

In test [1] the test system is antibodies in sera from SARS patients (sera 1a, 1b, 2, 6, 37, 62, London, SARS-yellow, SARS-green). The test is classed as binding, human.
In test [2] the test system is control sera (pooled serum of ten healthy LUMC hospital workers; commercial negative donor pooled serum from the Dutch bloodbank). It counts as binding, human.
Test [3] deals with rabbit serum obtained by immunizing a rabbit with the SARS-CoV strain Frankfurt 1. The test is classed as binding. Further details: Binding of a rabbit serum to linear peptides / Binding of a rabbit serum to looped peptides / Rabbit serum linear peptides / Rabbit serum looped peptides / Binding of a rabbit serum to linear peptides of protein N of SARS-CoV Urbani (Rabbit serum linear peptides) / Binding of a rabbit serum to looped/cyclic peptides of protein N of SARS-CoV Urbani (Rabbit serum looped peptides): unit not given here.

FLLVTLAILTALRLC: in test [1], the “Binding of serum 1a to linear peptides of protein E of SARS-CoV Urbani” value was 0.6, the “Binding of serum 1a to looped/cyclic peptides of protein E of SARS-CoV Urbani” value turned out to be 0.3, the “Binding of serum 1b to linear peptides of protein E of SARS-CoV Urbani” value is recorded as 0.5 and the “Binding of serum 1b to looped/cyclic peptides of protein E of SARS-CoV Urbani” value was determined as 0.0. Besides, in test [1], the “Binding of serum 2 to linear peptides of protein E of SARS-CoV Urbani” value is 0.6, the “Binding of serum 2 to looped/cyclic peptides of protein E of SARS-CoV Urbani” value was 0.5, the “Binding of serum 6 to linear peptides of protein E of SARS-CoV Urbani” value was 0.3 and the “Binding of serum 6 to looped/cyclic peptides of protein E of SARS-CoV Urbani” value was 1. Also, in test [1], the “Binding of serum 37 to linear peptides of protein E of SARS-CoV Urbani” value was determined as 0.3, the “Binding of serum 37 to looped/cyclic peptides of protein E of SARS-CoV Urbani” value was 0.6, the “Binding of serum 62 to linear peptides of protein E of SARS-CoV Urbani” value amounted to 0.3 and the “Binding of serum 62 to looped/cyclic peptides of protein E of SARS-CoV Urbani” value turned out to be 0.6. Also, in test [1], the “Binding of serum London to linear peptides of protein E of SARS-CoV Urbani” value stood at 0.6, the “Binding of serum London to looped/cyclic peptides of protein E of SARS-CoV Urbani” value is given as 1.2, the “Binding of serum SARS-green to linear peptides of protein E of SARS-CoV Urbani” value came out at 0.5 and the “Binding of serum SARS-green to looped/cyclic peptides of protein E of SARS-CoV Urbani” value came to 0.3. Further, in test [1], the “Binding of serum SARS-yellow to linear peptides of protein E of SARS-CoV Urbani” value turned out to be 0.2 and the “Binding of serum SARS-yellow to looped/cyclic peptides of protein E of SARS-CoV Urbani” value worked out at 0.5. In test [2], the “Binding of Control Serum Blood-Bank to Looped peptides” value is on record as 0.5, the “Binding of Control serum Blood-bank to linear peptides” value is given as 0.6, the “Binding of Control serum LUMC to linear peptides” value amounted to 0.5 and the “Binding of Control serum LUMC to looped peptides” value was found to be 0.1. Further, in test [3], the “Binding of a rabbit serum to linear peptides” value was 0.1 and the “Binding of a rabbit serum to looped peptides” value is recorded as 0.0.

In the case of FVSEETGTLIVNSVL, in test [1], the “Binding of serum 1a to linear peptides of protein E of SARS-CoV Urbani” value was 0.8, the “Binding of serum 1a to looped/cyclic peptides of protein E of SARS-CoV Urbani” value stood at 0.6, the “Binding of serum 1b to linear peptides of protein E of SARS-CoV Urbani” value is 0.6 and the “Binding of serum 1b to looped/cyclic peptides of protein E of SARS-CoV Urbani” value came out at 0.6. Besides, in test [1], the “Binding of serum 2 to linear peptides of protein E of SARS-CoV Urbani” value is 0.5, the “Binding of serum 2 to looped/cyclic peptides of protein E of SARS-CoV Urbani” value was 0.4, the “Binding of serum 6 to linear peptides of protein E of SARS-CoV Urbani” value is on record as 0.4 and the “Binding of serum 6 to looped/cyclic peptides of protein E of SARS-CoV Urbani” value turned out to be 0.5. In test [1], the “Binding of serum 37 to linear peptides of protein E of SARS-CoV Urbani” value came to 0.4, the “Binding of serum 37 to looped/cyclic peptides of protein E of SARS-CoV Urbani” value is recorded as 0.6, the “Binding of serum 62 to linear peptides of protein E of SARS-CoV Urbani” value is 0.5 and the “Binding of serum 62 to looped/cyclic peptides of protein E of SARS-CoV Urbani” value was found to be 0.8. In test [1], the “Binding of serum London to linear peptides of protein E of SARS-CoV Urbani” value is recorded as 0.8, the “Binding of serum London to looped/cyclic peptides of protein E of SARS-CoV Urbani” value was 0.5, the “Binding of serum SARS-green to linear peptides of protein E of SARS-CoV Urbani” value is 0.6 and the “Binding of serum SARS-green to looped/cyclic peptides of protein E of SARS-CoV Urbani” value is recorded as 0.6. Further, in test [1], the “Binding of serum SARS-yellow to linear peptides of protein E of SARS-CoV Urbani” value was 0.4 and the “Binding of serum SARS-yellow to looped/cyclic peptides of protein E of SARS-CoV Urbani” value was 0.8. Besides, in test [2], the “Binding of Control Serum Blood-Bank to Looped peptides” value is given as 0.8, the “Binding of Control serum Blood-bank to linear peptides” value came to 0.7, the “Binding of Control serum LUMC to linear peptides” value was determined as 1.1 and the “Binding of Control serum LUMC to looped peptides” value was 0.7. Besides, in test [3], the “Binding of a rabbit serum to linear peptides” value turned out to be 0.3 and the “Binding of a rabbit serum to looped peptides” value is listed as 0.1.

With ILTALRLCAYCCNIV, in test [1], the “Binding of serum 1a to linear peptides of protein E of SARS-CoV Urbani” value is reported as 0.8, the “Binding of serum 1a to looped/cyclic peptides of protein E of SARS-CoV Urbani” value is 0.9, the “Binding of serum 1b to linear peptides of protein E of SARS-CoV Urbani” value was found to be 0.7 and the “Binding of serum 1b to looped/cyclic peptides of protein E of SARS-CoV Urbani” value stood at 0.6. In addition, in test [1], the “Binding of serum 2 to linear peptides of protein E of SARS-CoV Urbani” value is listed as 0.4, the “Binding of serum 2 to looped/cyclic peptides of protein E of SARS-CoV Urbani” value is recorded as 1.0, the “Binding of serum 6 to linear peptides of protein E of SARS-CoV Urbani” value is listed as 0.8 and the “Binding of serum 6 to looped/cyclic peptides of protein E of SARS-CoV Urbani” value is 0.7. Also, in test [1], the “Binding of serum 37 to linear peptides of protein E of SARS-CoV Urbani” value was 0.7, the “Binding of serum 37 to looped/cyclic peptides of protein E of SARS-CoV Urbani” value was 0.7, the “Binding of serum 62 to linear peptides of protein E of SARS-CoV Urbani” value amounted to 0.8 and the “Binding of serum 62 to looped/cyclic peptides of protein E of SARS-CoV Urbani” value worked out at 0.8. In test [1], the “Binding of serum London to linear peptides of protein E of SARS-CoV Urbani” value was determined as 0.5, the “Binding of serum London to looped/cyclic peptides of protein E of SARS-CoV Urbani” value was 0.6, the “Binding of serum SARS-green to linear peptides of protein E of SARS-CoV Urbani” value worked out at 0.5 and the “Binding of serum SARS-green to looped/cyclic peptides of protein E of SARS-CoV Urbani” value worked out at 0.6. In addition, in test [1], the “Binding of serum SARS-yellow to linear peptides of protein E of SARS-CoV Urbani” value is 0.2 and the “Binding of serum SARS-yellow to looped/cyclic peptides of protein E of SARS-CoV Urbani” value is on record as 0.6. In test [2], the “Binding of Control Serum Blood-Bank to Looped peptides” value was 0.8, the “Binding of Control serum Blood-bank to linear peptides” value was 0.8, the “Binding of Control serum LUMC to linear peptides” value worked out at 0.4 and the “Binding of Control serum LUMC to looped peptides” value was 0.8. Moreover, in test [3], the “Binding of a rabbit serum to linear peptides” value amounted to 0.6 and the “Binding of a rabbit serum to looped peptides” value was found to be 0.6.

Turning to IVNSVLLFLAFVVFL, in test [1], the “Binding of serum 1a to linear peptides of protein E of SARS-CoV Urbani” value is recorded as 0.8, the “Binding of serum 1a to looped/cyclic peptides of protein E of SARS-CoV Urbani” value came out at 0.6, the “Binding of serum 1b to linear peptides of protein E of SARS-CoV Urbani” value amounted to 0.6 and the “Binding of serum 1b to looped/cyclic peptides of protein E of SARS-CoV Urbani” value came to 0.4. For the same sequence, in test [1], the “Binding of serum 2 to linear peptides of protein E of SARS-CoV Urbani” value came to 0.4, the “Binding of serum 2 to looped/cyclic peptides of protein E of SARS-CoV Urbani” value amounted to 0.5, the “Binding of serum 6 to linear peptides of protein E of SARS-CoV Urbani” value is listed as 0.7 and the “Binding of serum 6 to looped/cyclic peptides of protein E of SARS-CoV Urbani” value is on record as 0.3. In test [1], the “Binding of serum 37 to linear peptides of protein E of SARS-CoV Urbani” value is 0.7, the “Binding of serum 37 to looped/cyclic peptides of protein E of SARS-CoV Urbani” value amounted to 0.6, the “Binding of serum 62 to linear peptides of protein E of SARS-CoV Urbani” value is reported as 0.6 and the “Binding of serum 62 to looped/cyclic peptides of protein E of SARS-CoV Urbani” value was 0.6. In addition, in test [1], the “Binding of serum London to linear peptides of protein E of SARS-CoV Urbani” value is given as 0.4, the “Binding of serum London to looped/cyclic peptides of protein E of SARS-CoV Urbani” value was found to be 0.3, the “Binding of serum SARS-green to linear peptides of protein E of SARS-CoV Urbani” value worked out at 0.3 and the “Binding of serum SARS-green to looped/cyclic peptides of protein E of SARS-CoV Urbani” value turned out to be 0.2. Besides, in test [1], the “Binding of serum SARS-yellow to linear peptides of protein E of SARS-CoV Urbani” value was found to be 0.2 and the “Binding of serum SARS-yellow to looped/cyclic peptides of protein E of SARS-CoV Urbani” value is given as 0.7. Moreover, in test [2], the “Binding of Control Serum Blood-Bank to Looped peptides” value is recorded as 0.5, the “Binding of Control serum Blood-bank to linear peptides” value was 0.6, the “Binding of Control serum LUMC to linear peptides” value is recorded as 0.4 and the “Binding of Control serum LUMC to looped peptides” value amounted to 0.7. Further, in test [3], the “Binding of a rabbit serum to linear peptides” value is 0.5 and the “Binding of a rabbit serum to looped peptides” value is given as 0.5.
